# Tested on: T cells in the peripheral blood
# Test: ELISPOT assay (IFN-γ / IL-4) on patients' peripheral blood T cells before/after dendritic cell immunotherapy
# Assay type: cell-based, human
# Protocol: As described above, dendritic cells activate CTL to attack target cells to treat a disease. Accordingly, dendritic cells activated by peptides including PEP1 were prepared, administered to each individual, and subjected to an ELISPOT assay to observe an increase in T cell responses to each peptide in each individual.
# The experiments were performed on four patients with different diseases (cancers), and a dendritic cell immunotherapy method is as follows. Mononuclear cells were collected from peripheral blood extracted from each patient and cultured. Immature dendritic cells differentiated in the mononuclear cell culture were subjected to antigen activation with tumor-associated antigen peptides including PEP1. When the dendritic cells became mature, antigen activation was carried out once more with the same peptides. The activated mature dendritic cells were separated and then administered to each patient.
# More specifically, dendritic cells and NK cells used in treatment were prepared by proliferating mononuclear cells obtained from 25 ml of whole blood taken from a patient every two weeks, and differentiating the proliferated mononuclear cells into dendritic cells. That is, in this example, CD14+ mononuclear cells obtained from a peripheral blood vessel of the patient were cultured with IL-4 and GM-CFS for 6 days and proliferated, and then treated with a Streptococcus agent OK-432 for maturation. In addition, in the preparation of the dendritic cells, the dendritic cells were activated by WT1, MUC1 and other antigens.
# According to cancer characteristics of a patient undergoing a gene test, an antigen test and a tumor marker test, a substance having a similar function to a tumor-associated antigen (a cancer cell lysate, tumor-specific protein, or tumor-associated peptide) was added to the dendritic cells to enhance a cancer-recognizing ability of the dendritic cells, which is an activation process. For dendritic cell activation, as tumor-associated antigens that can be used in the present invention but not limited thereto, WT1, MUC-1, CA125, MAGE-A3, CEA, NY-ESO1, survinin, Her2, and the telomerase-derived peptide PEP1 were used. As an activation method but not limited to a specific example, the dendritic cells may be cultured with such a tumor-associated antigen. The activation may be performed on immature dendritic cells or mature dendritic cells. In one specific example of the present invention, mononuclear cells were collected from a patient's peripheral blood and cultured, immature dendritic cells differentiated from the mononuclear cells were treated with a peptide to activate and thus differentiated into mature dendritic cells, and then the mature dendritic cells were treated with the same peptide for activation. An amount of the antigen used in the activation may be the same as generally used in the art as follows but is not limited thereto. For example, PEP1 may be used in an amount of 1 to 1000 μg/ml along with the antigens, and 20 μg/ml of WT1, 20 μg/ml of MUC1, 20 μg/ml of CEA, 500 μg/ml of CA125, and 20 μg/ml of HER2 may be used. The dendritic cells (1×10^7) prepared as described above were intradermally injected six times every 14 days.
# The following experiment was performed to examine whether dendritic cell immunotherapy leads to an increase in T cell responses to peptides activated by an antigen. A buffy coat layer was separated from the peripheral blood of a patient subjected to the dendritic cell immunotherapy using a ficoll method (centrifugation using a ficoll), and mononuclear cells were obtained therefrom. Following 3 to 4-day culture, an ELISPOT assay was carried out. The ELISPOT assay was performed according to a protocol of an ImmunoSpot kit (Celluluar Technology Limited, USA). […] As peptide stimulants (antigen peptides), Peptivator WT1, Peptivator NY-ESO1 (Miltenyi Biotec., Germany), MUC-1, MAGE-A3, Survivin and PEP1 were added to each well at an optimum concentration and cultured for 48 hours. […]
sequence,measurement,setting,value
"EARPALLTSRLRFIPK (homo sapiens) [PEP1, telomerase-derived peptide composed of 16 amino acids, position [611-626] on telomerase]","Number of spots, IL-4","Patient 1 (stomach cancer), 7 days after six times of dendritic cell vaccine administration, negative control 17",335
same,"Number of spots, IFN-γ","Patient 1 (stomach cancer), 7 days after six times of dendritic cell vaccine administration, negative control 27",567
same,"Number of spots, IL-4","Patient 1 (stomach cancer), before dendritic cell vaccine administration, negative control 1",2
same,"Number of spots, IFN-γ","Patient 1 (stomach cancer), before dendritic cell vaccine administration, negative control 5",3
same,ELISPOT spots compared with the negative control,"Patient 1, after the treatment (dendritic cell vaccine six times)",increased
same,"Number of spots, IL-4","Patient 2 (lung cancer), 44 days after six times of dendritic cell vaccine administration, negative control 2",410
same,"Number of spots, IFN-γ","Patient 2 (lung cancer), 44 days after six times of dendritic cell vaccine administration, negative control 153, *exact number was not obtained",~332.5*
same,"Number of spots, IL-4","Patient 2 (lung cancer), before dendritic cell vaccine administration, negative control 0",9
same,"Number of spots, IFN-γ","Patient 2 (lung cancer), before dendritic cell vaccine administration, negative control 1",0
same,ELISPOT spots compared with the negative control,"Patient 2, after the treatment (dendritic cell vaccine 6 times)",increased
same,"Number of spots, IL-4","Patient 3 (pancreatic cancer), 11 days after six times of dendritic cell vaccine administration, negative control 2",434
same,"Number of spots, IFN-γ","Patient 3 (pancreatic cancer), 11 days after six times of dendritic cell vaccine administration, negative control 14",632
same,"Number of spots, IFN-γ","Patient 3 (pancreatic cancer), before dendritic cell vaccine administration, negative control 3",1
same,"Number of spots, IL-4","Patient 3 (pancreatic cancer), before dendritic cell vaccine administration, negative control 8",4
same,ELISPOT spots compared with the negative control,"Patient 3, after the treatment (dendritic cell vaccine 6 times)",increased
same,"Number of spots, IFN-γ","Patient 4 (breast cancer), 35 days after six times of dendritic cell vaccine administration, 2×10^5 cells/well, negative control 12",258
same,"Number of spots, IL-4","Patient 4 (breast cancer), 35 days after six times of dendritic cell vaccine administration, 2×10^5 cells/well, negative control 20",353
same,"Number of spots, IFN-γ","Patient 4 (breast cancer), before dendritic cell vaccine administration, 2×10^5 cells/well, negative control 13",22
same,"Number of spots, IL-4","Patient 4 (breast cancer), before dendritic cell vaccine administration, 2×10^5 cells/well, negative control 17",3
same,ELISPOT spots compared with the negative control,"Patient 4, after the treatment (dendritic cell vaccine 6 times)",increased
